Results: ChEMBL document CHEMBL1165918, “Synthesis and biological activity of N-aroyl-tetrahydro-gamma-carbolines” (Bioorg Med Chem, 2010)

Columns and labels:
[1] = target: T1, Polyunsaturated fatty acid 5-lipoxygenase (Homo sapiens, UniProt P09917)
T1 sequence (P09917 whole entry): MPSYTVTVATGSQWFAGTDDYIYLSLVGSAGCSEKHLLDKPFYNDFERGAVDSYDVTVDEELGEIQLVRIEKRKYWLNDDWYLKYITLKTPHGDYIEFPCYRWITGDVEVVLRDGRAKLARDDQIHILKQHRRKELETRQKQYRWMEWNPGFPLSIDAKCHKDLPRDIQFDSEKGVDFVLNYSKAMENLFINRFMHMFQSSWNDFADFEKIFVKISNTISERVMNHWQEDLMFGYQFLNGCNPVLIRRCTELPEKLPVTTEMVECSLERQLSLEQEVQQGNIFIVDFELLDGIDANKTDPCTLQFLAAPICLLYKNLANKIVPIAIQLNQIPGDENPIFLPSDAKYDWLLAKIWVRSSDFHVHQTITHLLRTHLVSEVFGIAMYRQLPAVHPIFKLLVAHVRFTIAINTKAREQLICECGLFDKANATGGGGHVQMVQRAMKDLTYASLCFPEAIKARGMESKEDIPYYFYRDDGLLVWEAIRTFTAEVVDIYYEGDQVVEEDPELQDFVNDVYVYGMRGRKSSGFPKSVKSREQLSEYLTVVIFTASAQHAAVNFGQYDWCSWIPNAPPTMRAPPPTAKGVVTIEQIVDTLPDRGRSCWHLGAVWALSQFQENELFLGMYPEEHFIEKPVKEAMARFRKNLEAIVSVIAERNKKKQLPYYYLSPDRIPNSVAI

PC-3 [2] = test: cells; conditions: Homo sapiens, PC-3, 72 h
Description: Cytotoxicity against human PC3 cells after 72 hrs by MTT assay

MCF7 [3] = test: Growth inhibition of human MCF7 cells at 10 uM after 72 hrs by MTT assay; type: functional; conditions: MCF7, 72 h, read-out: GI
L1210 [4] = test: Growth inhibition of mouse L1210 cells at 10 uM after 72 hrs by MTT assay; type: functional; conditions: L1210, 72 h, read-out: GI
[5] = target: T1, Polyunsaturated fatty acid 5-lipoxygenase; remark: listed apart in the source
[6] = target: T2, Prostaglandin G/H synthase 1 (Homo sapiens, UniProt P23219); type: tissue-based, Blood
T2 sequence (P23219 whole entry): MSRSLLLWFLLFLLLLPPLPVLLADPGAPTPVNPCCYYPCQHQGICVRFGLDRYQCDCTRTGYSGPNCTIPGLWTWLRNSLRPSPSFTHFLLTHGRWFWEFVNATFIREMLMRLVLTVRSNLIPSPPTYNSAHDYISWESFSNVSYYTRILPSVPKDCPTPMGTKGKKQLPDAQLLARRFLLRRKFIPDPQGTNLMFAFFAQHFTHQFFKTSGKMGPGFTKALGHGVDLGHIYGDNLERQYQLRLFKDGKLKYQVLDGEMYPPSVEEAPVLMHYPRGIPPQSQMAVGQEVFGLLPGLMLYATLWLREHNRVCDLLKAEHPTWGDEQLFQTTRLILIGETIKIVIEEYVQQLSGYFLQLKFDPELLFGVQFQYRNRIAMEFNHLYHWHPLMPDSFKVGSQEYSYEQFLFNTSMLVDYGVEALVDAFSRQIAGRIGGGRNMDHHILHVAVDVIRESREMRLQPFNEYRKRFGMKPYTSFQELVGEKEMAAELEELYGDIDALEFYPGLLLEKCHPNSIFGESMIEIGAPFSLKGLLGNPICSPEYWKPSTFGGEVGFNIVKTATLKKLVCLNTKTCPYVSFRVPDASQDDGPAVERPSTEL
Description: Inhibition of COX1 in human whole blood assessed as inhibition of 12-hydroxyheptadecatrienoic acid production by HPLC method

[7] = target: T2, Prostaglandin G/H synthase 1; test: Inhibition of COX1 in human whole blood; type: tissue-based
Homo sapiens = species: Homo sapiens; test: Selectivity ratio of IC50 for COX2 in human whole blood to IC50 for COX1 in human whole blood; type: tissue-based
PC-3 [8] = test: Growth inhibition of human PC3 cells at 10 uM after 72 hrs by MTT assay; type: functional; conditions: PC-3, 72 h, read-out: GI
[9] = target: T2, Prostaglandin G/H synthase 1; test: Inhibition of COX1 in human whole blood assessed as inhibition of 12-hydroxyheptadecatrienoic acid production at 10 uM by HPLC method; type: tissue-based
[10] = target: T3, Polyunsaturated fatty acid 5-lipoxygenase (Homo sapiens) (UniProt P09917); type: tissue-based; conditions: Blood, 10 uM
T3 sequence (whole entry): T1 sequence (P09917 whole entry)

L1210 [11] = test: Cytotoxicity against mouse L1210 cells after 72 hrs by MTT assay; type: functional, cell-based; conditions: L1210, 72 h
[12] = target: T4, Prostaglandin G/H synthase 2 (Homo sapiens) (UniProt P35354); test: Inhibition of COX2 in human whole blood assessed as inhibition of 12-hydroxyheptadecatrienoic acid production at 10 uM by HPLC method; type: tissue-based
T4 sequence (whole entry): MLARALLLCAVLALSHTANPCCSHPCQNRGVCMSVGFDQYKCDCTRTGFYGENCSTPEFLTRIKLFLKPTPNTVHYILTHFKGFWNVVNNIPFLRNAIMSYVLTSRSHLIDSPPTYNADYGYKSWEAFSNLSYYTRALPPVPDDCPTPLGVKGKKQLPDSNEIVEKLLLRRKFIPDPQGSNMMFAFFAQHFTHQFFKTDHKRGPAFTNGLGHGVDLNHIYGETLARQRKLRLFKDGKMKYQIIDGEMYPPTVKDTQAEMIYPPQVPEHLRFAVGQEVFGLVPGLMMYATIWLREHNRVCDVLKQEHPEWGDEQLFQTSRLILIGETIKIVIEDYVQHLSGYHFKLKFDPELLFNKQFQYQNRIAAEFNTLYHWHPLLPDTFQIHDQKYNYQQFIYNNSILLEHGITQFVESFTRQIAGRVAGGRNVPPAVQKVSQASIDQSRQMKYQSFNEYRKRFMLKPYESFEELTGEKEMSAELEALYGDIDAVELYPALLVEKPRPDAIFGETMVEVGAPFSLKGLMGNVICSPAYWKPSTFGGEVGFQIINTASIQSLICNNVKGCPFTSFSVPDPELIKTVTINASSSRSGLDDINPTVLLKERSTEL

MCF7 [13] = test: cells; conditions: Homo sapiens, MCF7, 72 h
Description: Cytotoxicity against human MCF7 cells after 72 hrs by MTT assay

[14] = target: T1, Polyunsaturated fatty acid 5-lipoxygenase; test: Inhibition of 5-lipoxygenase in human whole blood; type: tissue-based

SMILES	IC50 [1] [µM]	IC50 [5] [µM]	IC50 [6] [µM]	inhibition of growth at 10 µM (MCF7 [3]) [%]	inhibition of growth at 10 µM (L1210 [4]) [%]	inhibition of growth at 10 µM (PC-3 [8]) [%]	also measured
COC1(c2cc(F)cc(OCCCN3CCc4c(c5cc(F)ccc5n4Cc4ccc(S(C)(=O)=O)cc4)C3)c2)CCOCC1	29.5	24.6	180	34	38	–	IC50 (PC-3 [2]): 8 µM
COC(=O)c1cc2cc(S(C)(=O)=O)ccc2n1Cc1ccc(Cl)cc1	–	–	–	–	–	–	IC50 [7]: > 10 µM; Ratio IC50 (Homo sapiens): < 0.05
COc1ccc2c(c1)c1c(n2C(=O)c2ccccc2)CCNC1	–	–	6	0	32	0	–
COc1ccc2c(c1)c1c(n2C(=O)c2ccccc2F)CCN(CCCOc2cc(F)cc(C3(OC)CCOCC3)c2)C1	39.3	> 10	–	21	45	15	inhibition [9]: 83.5%
COC1(c2cc(F)cc(OCCCN3CCc4c(c5cc(S(C)(=O)=O)ccc5n4C(=O)c4ccccc4)C3)c2)CCOCC1	–	–	24	15	38	37	inhibition [12]: 8.4%
Cc1ccc(-c2cc(C(F)(F)F)nn2-c2ccc(S(N)(=O)=O)cc2)cc1 [CELECOXIB]	–	–	–	–	–	–	IC50 (L1210 [11]): 44 µM; IC50 (MCF7 [13]): 50.2 µM
COc1ccc2c(c1)c1c(n2C(=O)c2cccc(F)c2)CCN(CCCOc2cc(F)cc(C3(OC)CCOCC3)c2)C1	38	40.5	7.8	8	40	44	–
COC1(c2cc(F)cc(OCCCN3CCc4c(c5cc(S(C)(=O)=O)ccc5n4CCCOc4cc(F)cc(C5(OC)CCOCC5)c4)C3)c2)CCOCC1	–	–	–	36	–	–	IC50 (L1210 [11]): 3 µM
COC1(c2cc(F)cc(OCCCN3CCc4c(c5ccccc5n4C(=O)c4ccccc4)C3)c2)CCOCC1	92.9	206	18.2	30	24	6	–
CS(=O)(=O)c1ccc2c(c1)c1c(n2C(=O)c2ccccc2)CCNC1	–	–	24.4	0	0	7	–
COC1(c2cc(F)cc(OCc3cc(-c4ccccc4)n(-c4ccc(S(C)(=O)=O)cc4)n3)c2)CCOCC1	–	–	–	–	–	–	IC50 [7]: > 10 µM; IC50 [14]: 0.2 µM
COc1ccc2c(c1)c1c(n2Cc2ccc(S(C)(=O)=O)cc2)CCN(CCCOc2cc(F)cc(C3(OC)CCOCC3)c2)C1	–	–	–	27	–	–	IC50 (PC-3 [2]): 8 µM; IC50 (L1210 [11]): 5 µM
COc1ccc2c(c1)c1c(n2C(=O)c2ccc(Cl)cc2)CCN(CCCOc2cc(F)cc(C3(OC)CCOCC3)c2)C1	59.3	119	7.4	–	–	9	IC50 (L1210 [11]): 8 µM; IC50 (MCF7 [13]): 8 µM

Second part, led by results:

IC50 [1] [µM]	IC50 [5] [µM]	IC50 [6] [µM]	SMILES	inhibition of growth at 10 µM (MCF7 [3]) [%]	inhibition of growth at 10 µM (L1210 [4]) [%]	inhibition of growth at 10 µM (PC-3 [8]) [%]	also measured
66.4	108	–	COc1ccc2c(c1)c1c(n2C(=O)c2ccccc2)CCN(CCCOc2cc(F)cc(C3(OC)CCOCC3)c2)C1	18	20	20	inhibition [9]: 84.3%
58	59.9	–	COc1ccc2c(c1)c1c(n2C(=O)c2ccc(F)cc2)CCN(CCCOc2cc(F)cc(C3(OC)CCOCC3)c2)C1	37	44	0	inhibition [9]: 71.6%
–	> 10	–	COc1ccc2c(c1)c1c(n2C(=O)c2ccc(S(=O)(=O)/N=C/N(C)C)cc2)CCN(CCCOc2cc(F)cc(C3(OC)CCOCC3)c2)C1	21	–	42	inhibition [10]: 81.4%; IC50 (L1210 [11]): 6 µM
47.4	62	16.5	COc1ccc2c(c1)c1c(n2C(=O)c2ccc(Br)cc2)CCN(CCCOc2cc(F)cc(C3(OC)CCOCC3)c2)C1	39	42	0	–
45.4	55	36.7	COc1ccc2c(c1)c1c(n2C(=O)c2c(Cl)cc(Cl)cc2Cl)CCN(CCCOc2cc(F)cc(C3(OC)CCOCC3)c2)C1	36	11	0	–
